# Results published in patent US11554171B2, “Compounds and methods for the targeted degradation of bromodomain-containing proteins” (Arvinas Operations, Inc., priority 2015, dated 2023).
# Legend:
# c-myc in 22RV-1 cells = assay: Human c-myc ELISA assay; type: cell-based
# How it was run: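 c-myc levels measured by ELISA in RIPA lysates of 22RV-1 cells, calibrated with a 333-0 pg/ml standard curve. Lysates came from cells exposed for 18 h to an 8-point, 1:3 dose series starting at 300 nM or 1 μM final in 0.1% DMSO. Suppression potency given as DC50.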
# BRD2 = target: T1, BRD2 (Homo sapiens, UniProt P25440); assay: Immunoblotting, BRD2 degradation; type: cell-based; details: 22RV-1, VCaP, and LnCaP95 cells (FIG. 1)
# T1 construct: endogenous in cells; host or cells: 22Rv1, VCaP, LnCaP95
# From the text: (§1) 22Rv1 and VCaP cell lines were purchased from ATCC. LnCap95 cells were a generous gift from Dr. Alan Meeker at The Johns Hopkins University School of Medicine. BRD2 (#5848), BRD4 (#13440), PARP (#9532), c-Myc (#5605) antibodies were purchased from cell signaling. BRD3 (sc-81202) antibody was purchased from Santa Cruz Biotech. Antibodies used for immunohistochemistry were c-MYC (abcam #ab32072) and BRD4 (Bethyl Laboratories #a301-985a50). Actin and Tubulin antibodies were purchased from Sigma.
# (§2) Cells were lysed in RIPA buffer (Thermo Fisher Cat #89900) supplemented with protease inhibitors (Pierce™ Protease Inhibitor Tablets, EDTA-free Cat #88266). Lysates were centrifuged at 16,000×g and supernatants were used for SDS-PAGE. Western blotting was carried out following standard protocols.
# BRD3 = target: T2, BRD3 (Homo sapiens, UniProt Q15059); assay: Immunoblotting, BRD3 degradation; type: cell-based; details: 22RV-1, VCaP, and LnCaP95 cells (FIG. 1)
# T2 construct: endogenous in cells; host or cells: 22Rv1, VCaP, LnCaP95
# From the text: as §1, §2
# 22RV-1 cells [1] = assay: Cell proliferation assay (CellTiter-Glo); type: cell-based; details: FIG. 4
# Protocol: 22RV-1 cells are seeded at 5,000 cells/well at a volume of 75 μL/well in RPMI+10% FBS media in 96-well plates and grown overnight at 37 C. Cells are dosed with compounds at 4× concentration diluted in 0.4% DMSO; compounds are serially diluted 1:3 for 10-point dose curve. 25 ul of compounds is added to cells for a final concentration starting at 300 nM-0.3 nM in 0.1% DMSO and incubated for 72 hrs. In a separate plate, 100 ul of 5,000 cells/well are plated in 8 wells, 100 ul of CellTiter-Glo (CellTiter-Glo® Luminescent Cell Viability Assay, Promega #G7573) is added and incubated for 30 minutes, then read on luminometer to assess initial signal for cell growth. After 72 hrs, 100 ul of CellTiter-Glo is added and incubated for 30 minutes, then read on luminometer. Data is analyzed and plotted using GraphPad Prism software.
# 22RV-1 cells [2] = assay: Apoptosis assay (Caspase-Glo 3/7); type: cell-based; details: FIG. 5
# Protocol: 22RV-1 cells are seeded at 5,000 cells/well at a volume of 75 μL/well in RPMI+10% FBS media in 96-well plates and grown overnight at 37 C. Cells are dosed with compounds at 4× concentration diluted in 0.4% DMSO; compounds are serially diluted 1:3 for 8-point dose curve. 25 ul of compounds is added to cells for a final concentration starting at 300 nM-0.3 nM in 0.1% DMSO and incubated for 48 hrs. After 48 hrs, 100 ul of Caspase-Glo® 3/7 (Promega Caspase-Glo 3/7 Assay #G8093 is added and incubated for 30 minutes, then read on luminometer. Data is analyzed and plotted using GraphPad Prism software.
# 22RV-1 tumor xenograft = assay: In vivo 22Rv1 xenografts efficacy; set-up: species or system mice; details: 14 day; subcutaneous dosing (FIG. 7)
# Protocol: (§3) Mice were housed in pathogen-free animal facilities at New England Life Sciences (NELS, New Haven, Conn.). All experiments were conducted under an IACUC protocol that was approved by the NELS IACUC committee. Male Nu/Nu mice and CB17 SCID mice were obtained at 4-5 weeks age from Charles River Laboratories and implanted subcutaneously with 5×10^6 22Rv1 cells or 5×10^6 VCaP cells in Matrigel (Corning Life Sciences). After 10-14 days, mice bearing >200 mm^3 tumors were randomized into indicated number of groups with ten mice in each group while ensuring identical (±5 mm^3) mean tumor volume in each group. Dosing was carried out through the indicated route and with the indicated schedule for each drug for up to three weeks, depending on the experiment. Mice were sacrificed eight hours after the final dose. Blood was collected, processed to plasma, and flash frozen for PK analysis. Tissues were harvested and flash frozen for further analysis. All PK analysis was carried out at Drumetix Laboratories (Greensboro, N.C.). 2 out of 10 animals in each study arm were randomly excluded in pharmacodynamic analysis, for greater technical ease of running a 20-well protein gel. For PSA ELISA, only samples with at least 25 uL plasma remaining after PK analysis were utilized using the Cell Signaling PathScan® Total PSA/KLK3 Sandwich ELISA Kit #14119 following the manufacturer's protocol. […]
# BRD4 [3] = target: T3, BRD4 (Homo sapiens, UniProt O60885); assay: BRD4 degradation in 22RV-1 tumor xenograft study; type: in vivo; set-up: from tissue; host or cells: 22Rv1 tumour xenograft harvested from mice; details: 14-day 22RV-1 tumor xenograft study; dosed subcutaneously to mice at 10 mg/kg (qd) for 2 weeks (FIG. 6)
# Protocol: As a comparison, OTX-015 was also included (50 mg/kg, p.o., qd). Example 77 was dosed subcutaneously to mice at 10 mg/kg (qd) for 2 weeks.
# as §3, with “gel.” for “gel. For PSA ELISA, only samples with at least 25 uL plasma remaining after PK analysis were utilized using the Cell Signaling PathScan® Total PSA/KLK3 Sandwich ELISA Kit #14119 following the manufacturer's protocol.”
# BRD4 [4] = target: T3, BRD4; assay: Immunoblotting, BRD4 degradation; type: cell-based; set-up: compounds which function to recruit endogenous proteins, e.g., BRd4, to E3 Ubiquitin Ligase for ubiquitination and degradation; endogenous in cells; host or cells: 22Rv1, VCaP, LnCaP95
# From the text: as §1, §2
# T2 sequence (Q15059 whole entry): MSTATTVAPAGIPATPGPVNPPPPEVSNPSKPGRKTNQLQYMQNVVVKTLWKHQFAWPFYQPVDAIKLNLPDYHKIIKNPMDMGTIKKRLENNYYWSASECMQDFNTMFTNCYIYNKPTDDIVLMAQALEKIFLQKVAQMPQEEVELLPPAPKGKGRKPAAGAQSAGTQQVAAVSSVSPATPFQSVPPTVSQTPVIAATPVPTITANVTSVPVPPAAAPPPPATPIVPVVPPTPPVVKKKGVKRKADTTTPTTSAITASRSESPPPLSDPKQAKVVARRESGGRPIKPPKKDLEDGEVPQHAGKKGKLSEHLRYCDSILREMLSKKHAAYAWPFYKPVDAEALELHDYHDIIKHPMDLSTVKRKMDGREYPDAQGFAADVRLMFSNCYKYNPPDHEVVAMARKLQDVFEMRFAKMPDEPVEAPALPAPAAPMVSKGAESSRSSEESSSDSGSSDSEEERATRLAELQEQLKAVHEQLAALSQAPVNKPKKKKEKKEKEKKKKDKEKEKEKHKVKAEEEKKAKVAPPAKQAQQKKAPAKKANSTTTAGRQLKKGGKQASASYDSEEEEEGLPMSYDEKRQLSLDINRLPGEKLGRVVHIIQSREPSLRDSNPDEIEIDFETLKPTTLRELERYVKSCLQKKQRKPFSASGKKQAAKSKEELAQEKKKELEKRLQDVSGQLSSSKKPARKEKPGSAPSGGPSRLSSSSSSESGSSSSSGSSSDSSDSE
# T1 sequence (P25440 whole entry): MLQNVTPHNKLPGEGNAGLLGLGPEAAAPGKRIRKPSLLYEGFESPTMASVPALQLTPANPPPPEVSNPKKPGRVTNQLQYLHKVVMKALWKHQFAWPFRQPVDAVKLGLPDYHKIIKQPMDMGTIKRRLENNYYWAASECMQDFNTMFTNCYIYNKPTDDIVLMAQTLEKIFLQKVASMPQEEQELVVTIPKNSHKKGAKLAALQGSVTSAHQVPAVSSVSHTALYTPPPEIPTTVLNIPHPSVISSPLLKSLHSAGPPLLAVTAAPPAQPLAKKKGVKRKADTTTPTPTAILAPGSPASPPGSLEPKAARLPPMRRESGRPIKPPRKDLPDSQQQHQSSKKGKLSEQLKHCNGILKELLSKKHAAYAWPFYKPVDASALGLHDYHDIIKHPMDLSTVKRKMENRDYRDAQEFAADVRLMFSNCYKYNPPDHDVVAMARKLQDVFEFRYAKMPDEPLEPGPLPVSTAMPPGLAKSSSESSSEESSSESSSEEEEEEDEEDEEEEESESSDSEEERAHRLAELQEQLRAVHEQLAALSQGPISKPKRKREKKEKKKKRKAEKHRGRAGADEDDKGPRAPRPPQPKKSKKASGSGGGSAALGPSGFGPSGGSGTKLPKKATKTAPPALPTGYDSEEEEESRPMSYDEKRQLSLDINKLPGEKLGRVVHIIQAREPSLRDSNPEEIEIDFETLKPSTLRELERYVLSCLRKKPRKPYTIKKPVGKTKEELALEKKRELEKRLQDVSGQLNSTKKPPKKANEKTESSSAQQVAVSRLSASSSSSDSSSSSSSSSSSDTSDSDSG
compound,measurement,setting,value
"Cc1ncsc1-c1ccc([C@H](C)NC(=O)[C@@H]2C[C@@H](O)CN2C(=O)[C@@H](NC(=O)COCCCOCCNC(=O)C[C@@H]2N=C(c3ccc(Cl)cc3)c3c(sc(C)c3C)-n3c(C)nnc32)C(C)(C)C)cc1 [Example 77, (2S, 4R)-1-[(2S)-2-{2-[3-(2-{2-[(9S)-7-(4-chlorophenyl)-4,5,13-trimethyl-3-thia-1,8,11,12-tetraazatricyclo[8.3.0.0^2,^6]trideca-2(6),4,7,10,12-pentaen-9-yl]acetamido}ethoxy)propoxy]acetamido}-3,3-dimethylbutanoyl]-4-hydroxy-N-[(1S)-1-[4-(4-methyl-1,3-thiazol-5-yl)phenyl]ethyl]pyrrolidine-2-carboxamide]",suppression of cellular c-MYC levels measured by ELISA,c-myc in 22RV-1 cells; FIG. 3,suppression
same,Emax,"c-myc in 22RV-1 cells; Homo sapiens, 22Rv1, 18 h, read-out: Degradation of BRD4: Maximum inhibition (%) c-Myc ELISA in 22RV1 cells",100%
same,DC50,"c-myc in 22RV-1 cells; Homo sapiens, 22Rv1, read-out: Degradation of BRD4: DC50 (uM) c-Myc ELISA in 22RV1 cells",< 0.01 µM
same,degradation of BRD2,BRD2,degradation
same,degradation of BRD3,BRD3,degradation
same,proliferation inhibition of prostate cancer cell growth,22RV-1 cells [1],proliferation inhibition
same,caspase activation in prostate cancer cell lines,22RV-1 cells [2],caspase activation
same,tumor response in 22RV-1 mice tumor xenograft model,22RV-1 tumor xenograft,tumor regression
same,degradation of BRD4 in tumor xenograft,BRD4 [3],degradation of BRD4
same,degradation of BRD4,"BRD4 [4]; 22RV-1, VCaP, and LnCaP95 cells (FIG. 1)",degradation
same,BRD4 degradation after pretreatment with an excess of VHL ligand ARV-056,BRD4 [4]; FIG. 2,blocked
same,BRD4 degradation in presence of proteasome inhibitor carfilzomib,BRD4 [4]; FIG. 2,blocked
